Measured values as given in the Deep4Chem optical property database.
Blank lines part the entries; values can stand above or below the compound they belong to.

Assay: solvent given as SMILES

Compound: CCCCn1c2ccc(C#N)cc2c2cc(C#N)cc(-c3ccc(N(c4ccccc4)c4ccccc4)cc3)c21
emission maximum (in C1CCCCC1): 407 nm
emission maximum (in C1CCOC1): 440 nm
emission maximum (in CC#N): 474 nm
emission maximum (in CCCCOCCCC): 412 nm
emission maximum (in CCN(CC)CC): 410.48 nm
emission maximum (in CCOC(C)=O): 438 nm
emission maximum (in CCOCC): 424 nm
emission maximum (in CN(C)C=O): 472 nm
emission maximum (in Cc1ccccc1): 415 nm
emission maximum (in ClC=C(Cl)Cl): 420 nm
emission maximum (in ClCCl): 447 nm

Compound: COC(=O)/C=C/C=C/C1=CC2=C(c3c(C)cc(C)cc3C)c3cc(/C=C/C=C/C(=O)OC)cn3[B-](F)(F)[N+]2=C1
emission maximum (in ClCCl): 662 nm

Compound: CCCCN1c2ccccc2Sc2cc(/C=C/c3nc4nc5ccccc5nc4s3)ccc21
emission maximum (in C1CCCCC1): 558 nm
emission maximum (in C1CCOC1): 670 nm
emission maximum (in C1COCCO1): 640 nm
emission maximum (in CC(C)=O): 739 nm
emission maximum (in CCOC(C)=O): 670 nm
emission maximum (in CCOCC): 635 nm
emission maximum (in Cc1ccccc1): 621 nm
emission maximum (in ClCCl): 729 nm

Compound: CC(C)(C)c1ccc2c(c1)B1c3cc(C(C)(C)C)ccc3Oc3cc(-n4c5ccccc5c5c6c(c7ccccc7n6-c6ccccc6)c6c(c7ccccc7n6-c6ccccc6)c54)cc(c31)O2
emission maximum (in Cc1ccccc1): 456 nm

Compound: Cc1ccc(C)n1-c1ccc(C#N)cc1
emission maximum (in C1CCOC1): 501 nm
emission maximum (in CCCCCC): 406 nm
emission maximum (in CCCCCl): 480 nm
emission maximum (in CCOCC): 479 nm
emission maximum (in ClCCl): 517 nm

Compound: CCOC(=O)c1cc(C(=O)OCC)c2ccc(C)cc2n1
emission maximum (in CCO): 422 nm

Compound: CC1(C)c2ccccc2N(c2ccc(-c3ccc(C#N)c(C#N)n3)cc2)c2ccccc21
emission maximum (in Cc1ccccc1): 562 nm
emission maximum (in N#Cc1ccc2c(c1)c1ccccc1n2-c1cccc(-n2c3ccccc3c3ccccc32)c1): 550 nm

Compound: COc1ccc(C2=c3sc(-c4ccc(OC)cc4)c(-c4ccc(OC)cc4)c3=[N+]3C2=Nc2c(-c4ccc(OC)cc4)c4sc(-c5ccc(OC)cc5)c(-c5ccc(OC)cc5)c4n2[B-]3(F)F)cc1
emission maximum (in ClC(Cl)Cl): 816 nm

Compound: CC(C)[Si](C#CC1=CC2=c3cc(C#C[Si](C(C)C)(C(C)C)C(C)C)c4nc(C(F)(F)C(F)(F)C(F)(F)F)nc5c(C#C[Si](C(C)C)(C(C)C)C(C)C)cc(c3c54)C3=CC(C#C[Si](C(C)C)(C(C)C)C(C)C)=C4N=C(C(F)(F)C(F)(F)C(F)(F)F)N=C1C4C32)(C(C)C)C(C)C (stereo not drawn)
emission maximum (in C1CCOC1): 525 nm

Compound: OB(O)c1ccc(-c2ccc(N(c3ccccc3)c3ccccc3)cc2)cc1
emission maximum (in C1CCCCC1): 384 nm
emission maximum (in C1CCOC1): 410 nm
emission maximum (in CCO): 422.4 nm
emission maximum (in CCOCC): 398 nm
emission maximum (in CO): 432 nm

Compound: COc1ccc2c3c(cccc13)C(=O)N(C)C2=O
emission maximum (in C1CCCCC1): 404 nm
emission maximum (in C1CCOC1): 430 nm
emission maximum (in CC#N): 434 nm
emission maximum (in CC(C)CC(C)(C)C): 402 nm
emission maximum (in CCCCCCCCCCCC): 402 nm
emission maximum (in CCO): 444 nm
emission maximum (in CN(C)C=O): 444 nm
emission maximum (in CO): 450 nm
emission maximum (in CS(C)=O): 452 nm
emission maximum (in ClC(Cl)(Cl)Cl): 412 nm
emission maximum (in O): 462 nm

Compound: O=C(c1ccccc1)c1ccc(-n2c3ccccc3c3c2c2ccccc2n3-c2ccccc2)cc1
emission maximum (in Cc1ccccc1): 520 nm

Compound: CC(C)(C)c1ccc(-c2nc3c4ccccc4c4ccccc4c3n2-c2ccc(C(C)(C)C)cc2)cc1
emission maximum (in C1CCOC1): 390 nm
emission maximum (in C1COCCO1): 389 nm
emission maximum (in CC#N): 389 nm
emission maximum (in CCCCCC): 385 nm
emission maximum (in CCCCOCCCC): 389 nm
emission maximum (in CCN(CC)CC): 388 nm
emission maximum (in CCOC(C)=O): 390 nm
emission maximum (in CCOCC): 388 nm
emission maximum (in CN(C)C=O): 391 nm
emission maximum (in Cc1ccccc1): 390 nm
emission maximum (in ClC=C(Cl)Cl): 392 nm
emission maximum (in ClCCl): 392 nm

Compound: CCN(CC)c1cc2oc3cc(N(CC)CC)c(F)cc3c(=O)c2cc1F
emission maximum (in CCO): 452 nm

Compound: CSc1ccc2c(c1)N(CCCN(C)C)c1ccccc1S2
emission maximum (in CC#N): 460 nm
emission maximum (in CO): 455 nm
emission maximum (in O): 475 nm

Compound: COC(=O)c1cc(=O)n(C)c2cc(-c3cc(OC)c(OC)c(OC)c3)sc12
emission maximum (in CC#N): 495 nm
emission maximum (in ClCCl): 485 nm

Compound: CCCCCCCCCCOc1cc(OCCCCCCCCCC)cc(C2=C3C(/C=C/c4ccc(OC)cc4)=C(C#Cc4ccc(C(C)(C)C)cc4)C(/C=C/c4ccc(OC)cc4)=[N+]3[B-](F)(F)n3c(/C=C/c4ccc(OC)cc4)c(C#Cc4ccc(C(C)(C)C)cc4)c(/C=C/c4ccc(OC)cc4)c32)c1
emission maximum (in ClC(Cl)Cl): 756 nm

Compound: O=c1oc2ccccc2cc1-c1nc2ccccc2o1
emission maximum (in C1CCOC1): 444 nm
emission maximum (in C1COCCO1): 443 nm
emission maximum (in CC1CCCCC1): 438 nm
emission maximum (in CC#N): 443 nm
emission maximum (in CC(C)=O): 444 nm
emission maximum (in CC(C)CO): 445 nm
emission maximum (in CC(C)O): 444 nm
emission maximum (in CCOC(C)=O): 443 nm
emission maximum (in CN(C)C=O): 445 nm
emission maximum (in CO): 440 nm
emission maximum (in CS(C)=O): 453 nm
emission maximum (in Cc1ccccc1): 445 nm
emission maximum (in ClC(Cl)(Cl)Cl): 444 nm
emission maximum (in ClC(Cl)Cl): 443 nm
emission maximum (in OCCO): 447 nm

Compound: CCn1c2ccccc2c2cc(C#Cc3cc(C#Cc4ccc5c(c4)c4ccccc4n5CC)nc(N4CCCCC4)n3)ccc21
emission maximum (in C1CCOC1): 445 nm
emission maximum (in CCOC(C)=O): 446 nm
emission maximum (in CN(C)C=O): 469 nm
emission maximum (in Cc1ccccc1): 438 nm
emission maximum (in ClCCl): 450 nm

Compound: N#Cc1nn(-c2c(Cl)cccc2Cl)nc1N1CCCC1
emission maximum (in CC#N): 418 nm

Compound: CCCCC(CC)COc1cc(OCC(CC)CCCC)c2c#cc3ccc4sc5ccc(c#cc6cc(c#cc7ccc8sc9ccc(c#cc1c2)cc9c8c7)c(C(CCCC)OCCC)cc6C(CCCC)OCCC)cc5c4c3 (stereo not drawn)
emission maximum (in ClCCl): 377 nm

Compound: CC[n+]1ccc(/C=C/c2cc(OC)c(C=O)cc2OC)cc1
emission maximum (in C1CCOC1): 557 nm
emission maximum (in CC#N): 566 nm
emission maximum (in CN(C)C=O): 565 nm
emission maximum (in Cc1ccccc1): 554 nm
emission maximum (in ClCCl): 561 nm
emission maximum (in O): 558 nm

Compound: Cc1nc(-c2cc(F)ccc2O)n2c1CCCC2
emission maximum (in ClCCl): 464 nm

Compound: CCCCC1=Cc2c3ccc4cccc5ccc(c6cc(-c7ccccc7)n(c26)P1(=O)c1ccccc1)c3c45 (stereo not drawn)
emission maximum (in C1CCCCC1): 452 nm
emission maximum (in C1CCOC1): 459 nm
emission maximum (in C1COCCO1): 460 nm
emission maximum (in CC#N): 459 nm
emission maximum (in CC(C)=O): 459 nm
emission maximum (in CO): 459 nm
emission maximum (in Cc1ccccc1): 460 nm
emission maximum (in ClC(Cl)Cl): 458 nm
emission maximum (in ClCCl): 459 nm

Compound: CC(C)(C)c1ccc2c(c1)c1cc(C(C)(C)C)ccc1n2-c1ccc(C#Cc2ccc3c4ccc(C#Cc5ccc(-n6c7ccc(C(C)(C)C)cc7c7cc(C(C)(C)C)ccc76)cc5)cc4n(-c4ccc(C(F)(F)F)cc4)c3c2)cc1
emission maximum (in ClCCl): 431 nm

Compound: COc1cc2c(cc1OC)C1=C3C(=O)N4C=Cc5cc(OC)c(OC)cc5C4=C3C(=O)N1C=C2
emission maximum (in CN(C)C=O): 602 nm
emission maximum (in ClC(Cl)Cl): 597 nm

Compound: O=C1c2ccccc2C(=O)C1C1C(=O)c2c3ccccc3cc3cc4ccccc4c1c23 (stereo not drawn)
emission maximum (in C1CCOC1): 569 nm
emission maximum (in CC#N): 591 nm
emission maximum (in CCCCCC): 538 nm
emission maximum (in Cc1ccccc1): 563 nm
emission maximum (in ClCCl): 583 nm

Compound: CCn1c2ccsc2c2c3nsnc3c3c4sccc4n(CC)c3c21
emission maximum (in C1CCOC1): 539 nm
emission maximum (in CCOC(C)=O): 538 nm
emission maximum (in CN(C)C=O): 573 nm
emission maximum (in Cc1ccccc1): 523 nm
emission maximum (in ClCCl): 565 nm

Compound: c1cc2ccc3ccc4cc3c2cc1c1ccc2ccc3ccc(cc3c2c1)c1ccc2ccc3ccc4cc3c2c1
emission maximum (in Cc1ccccc1): 419 nm

Compound: COc1ccc(N(c2ccc(C=C(c3ccccc3)c3ccccc3)cc2)c2ccc(OC)cc2)cc1
emission maximum (in Cc1ccccc1): 489 nm

More lines, now with the values ahead:

emission maximum (in C1CCCCC1): 403.35 nm
emission maximum (in CC#N): 514.77 nm
emission maximum (in ClCCl): 472.82 nm
Compound: O=S1(=O)c2ccccc2-c2cc(-c3c4ccccc4cc4ccccc34)ccc21

emission maximum (in C1CCOC1): 754 nm
emission maximum (in ClC(Cl)Cl): 754 nm
Compound: COc1ccc(-c2cc3c(s2)=CC2=C(C(F)(F)F)c4cc5sc(-c6ccc(OC)cc6)cc5n4[B-](F)(F)[N+]=32)cc1

emission maximum (in ClCCl): 483 nm
Compound: CCOc1cccc2c1O[B-](F)(F)[n+]1c3c(c4c(c1-2)-c1ccccc1CC4)-c1ccccc1CC3

emission maximum (in CC#N): 602 nm
Compound: O=[N+]([O-])c1ccc(/C=C/c2nc3c4ccccc4c4ccccc4c3o2)cc1

emission maximum (in ClCCl): 441 nm
Compound: CC(C)(C)NC(=O)c1ccc(-c2cc3ccccc3o2)c2ccc3c4ccccc4c4ccccc4c3c12

emission maximum (in ClCCl): 369 nm
Compound: CCCCCc1c(C)c2c3ccccc3[nH]c2c2ccccc12

emission maximum (in CCCCCCC): 401 nm
Compound: c1ccc2cc3c(cc2c1)-c1cccc2c1c-3cc1ccccc12

emission maximum (in C1CCCCC1): 445 nm
emission maximum (in CC#N): 610 nm
emission maximum (in CO): 639 nm
emission maximum (in ClC(Cl)Cl): 534 nm
Compound: CN(C)c1ccc2nc(-c3ccc(/C=N/c4ccccc4)cc3)sc2c1

emission maximum (in CC1CCCCC1): 329 nm
emission maximum (in CC#N): 333 nm
emission maximum (in CO): 353 nm
Compound: C=CCOc1ccc(-c2nc3cc(C(NC(=O)OC(C)(C)C)C(=O)OC)ccc3o2)cc1 (stereo not drawn)

emission maximum (in ClCCl): 441 nm
Compound: C(#Cc1nc(C#Cc2cccs2)c(C#Cc2cccs2)c(C#Cc2cccs2)c1C#Cc1cccs1)c1cccs1

emission maximum (in C1CCCCC1): 418 nm
emission maximum (in CC#N): 433 nm
emission maximum (in CO): 429 nm
emission maximum (in ClCCl): 431 nm
Compound: COc1c2ccccc2c(OC)c2c1c1cccc(OC)c1n2C

emission maximum (in CN(C)C=O): 618 nm
emission maximum (in ClC(Cl)Cl): 609 nm
Compound: O=C1C2=C3c4sccc4C=CN3C(=O)C2=C2c3sccc3C=CN12

emission maximum (in ClC(Cl)Cl): 419 nm
Compound: CC(C)(C)c1cccc2c1oc1nc3oc4ccc(-n5c6ccccc6c6ccccc65)cc4c3cc12

emission maximum (in CC#N): 642 nm
emission maximum (in CCCCCCC): 511 nm
emission maximum (in CO): 567 nm
emission maximum (in O): 552 nm
Compound: O=[N+]([O-])c1ccc(/C=C/c2c[nH]c3ccccc23)cc1

emission maximum (in C1CCCCC1): 587 nm
emission maximum (in c1ccccc1): 635 nm
Compound: CNc1ccc2c(c1)C(=O)c1ccccc1-2

emission maximum (in ClCCl): 506 nm
Compound: CCCCc1ccc2c(c1)c1ccc3cccc4c3c1c1c2c2cccc3ccc5c6cc(CCCC)ccc6c4c1c5c32

emission maximum (in C1CCOC1): 460 nm
Compound: N#Cc1c(N2CCCCC2)cc(-c2cccc3ccccc23)c2c1C(=O)c1ccccc1-2
